According to PubChem BioAssay (NCI):
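Each compound was tested at five concentrations against cells in 96-well plates for 48 hours. TGI: total growth inhibition.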

Key:
Experiment in all cases: growth of human tumour cells (NCI), 48 h
K-562 leukemia = test system: K-562 leukemia
UO-31 renal = test system: UO-31 renal
TK-10 renal = test system: TK-10 renal
RXF 393 renal = test system: RXF 393 renal
SK-OV-3 ovarian = test system: SK-OV-3 ovarian
CCRF-CEM leukemia = test system: CCRF-CEM leukemia
EKVX NSCLC = test system: EKVX NSCLC
DMS 114 small cell lung = test system: DMS 114 small cell lung
SNB-19 CNS = test system: SNB-19 CNS
SF-268 CNS = test system: SF-268 CNS
COLO 205 colon = test system: COLO 205 colon
HCT-15 colon = test system: HCT-15 colon
ACHN renal = test system: ACHN renal
U251 CNS = test system: U251 CNS
SNB-78 CNS = test system: SNB-78 CNS
HL-60(TB) leukemia = test system: HL-60(TB) leukemia
NCI-H226 lung = test system: NCI-H226 lung
NCI-H460 lung = test system: NCI-H460 lung
HOP-92 NSCLC = test system: HOP-92 NSCLC
M19-MEL melanoma = test system: M19-MEL melanoma

SMILES	TGI (K-562 leukemia)	TGI (UO-31 renal)	TGI (TK-10 renal)	TGI (RXF 393 renal)	TGI (SK-OV-3 ovarian)	TGI (CCRF-CEM leukemia)	TGI (EKVX NSCLC)	TGI (DMS 114 small cell lung)	TGI (SNB-19 CNS)	TGI (SF-268 CNS)	TGI (COLO 205 colon)	TGI (HCT-15 colon)	TGI (ACHN renal)	TGI (U251 CNS)	TGI (SNB-78 CNS)	TGI (HL-60(TB) leukemia)	TGI (NCI-H226 lung)	TGI (NCI-H460 lung)	TGI (HOP-92 NSCLC)	TGI (M19-MEL melanoma)
O=C(c1ccccc1)c1ccc2n[se]nc2c1	> 100 µM	> 100 µM	> 100 µM	> 100 µM	> 100 µM	> 100 µM	> 100 µM	60 µM	> 100 µM	> 100 µM	84.1 µM	> 100 µM	> 100 µM	> 100 µM	> 100 µM	25.9 µM	–	–	–	–
CC1=C2C(O)C(C(C)C(=O)N(C)C)CCC2(C)C=CC1=O (stereo not drawn)	> 100 µM	> 100 µM	–	> 100 µM	> 100 µM	> 100 µM	> 100 µM	> 100 µM	> 100 µM	> 100 µM	> 100 µM	> 100 µM	–	> 100 µM	> 100 µM	> 100 µM	> 100 µM	> 100 µM	> 100 µM	> 100 µM
CN(C)CCNC(=O)c1cccc2c(=O)c3ccccc3oc12	> 100 µM	55 µM	–	> 100 µM	> 100 µM	> 100 µM	> 86.9 µM	> 69.8 µM	97.7 µM	> 100 µM	19.4 µM	> 100 µM	–	> 100 µM	> 100 µM	> 90.6 µM	76.5 µM	> 79.5 µM	60.1 µM	56.7 µM
CCOP(=Nc1ccc(N(C)C)cc1)(OCC)OCC	> 100 µM	> 100 µM	> 100 µM	> 100 µM	> 100 µM	–	> 100 µM	–	> 100 µM	> 100 µM	> 100 µM	> 100 µM	> 100 µM	> 100 µM	–	–	–	> 100 µM	> 100 µM	–
CCC1C[N+]23CCc4c([nH]c5ccccc45)C2CC1CC3 (stereo not drawn)	> 100 µM	> 100 µM	> 100 µM	> 100 µM	> 100 µM	> 100 µM	> 100 µM	> 100 µM	–	> 100 µM	> 100 µM	> 100 µM	> 100 µM	> 100 µM	–	–	> 100 µM	> 100 µM	> 100 µM	> 100 µM
